# Results as given in PMC12136037, “Type II kinase inhibitors that target Parkinson’s disease–associated LRRK2” (Science Advances, 2025).
# Experiments:
# Assay in all cases: DSF 100 kinase selectivity screen;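 note: compound tested at 20 µM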
# Type in all cases: binding
# [1] = molecular target: T1, ~100 representative kinases (Homo sapiens, UniProt Q8TF76); conditions: protein GSG2; average of three replicates
# T1 construct: Recombinant protein kinase domains with a concentration of 2 μM
# T1 sequence (Q8TF76 1-798): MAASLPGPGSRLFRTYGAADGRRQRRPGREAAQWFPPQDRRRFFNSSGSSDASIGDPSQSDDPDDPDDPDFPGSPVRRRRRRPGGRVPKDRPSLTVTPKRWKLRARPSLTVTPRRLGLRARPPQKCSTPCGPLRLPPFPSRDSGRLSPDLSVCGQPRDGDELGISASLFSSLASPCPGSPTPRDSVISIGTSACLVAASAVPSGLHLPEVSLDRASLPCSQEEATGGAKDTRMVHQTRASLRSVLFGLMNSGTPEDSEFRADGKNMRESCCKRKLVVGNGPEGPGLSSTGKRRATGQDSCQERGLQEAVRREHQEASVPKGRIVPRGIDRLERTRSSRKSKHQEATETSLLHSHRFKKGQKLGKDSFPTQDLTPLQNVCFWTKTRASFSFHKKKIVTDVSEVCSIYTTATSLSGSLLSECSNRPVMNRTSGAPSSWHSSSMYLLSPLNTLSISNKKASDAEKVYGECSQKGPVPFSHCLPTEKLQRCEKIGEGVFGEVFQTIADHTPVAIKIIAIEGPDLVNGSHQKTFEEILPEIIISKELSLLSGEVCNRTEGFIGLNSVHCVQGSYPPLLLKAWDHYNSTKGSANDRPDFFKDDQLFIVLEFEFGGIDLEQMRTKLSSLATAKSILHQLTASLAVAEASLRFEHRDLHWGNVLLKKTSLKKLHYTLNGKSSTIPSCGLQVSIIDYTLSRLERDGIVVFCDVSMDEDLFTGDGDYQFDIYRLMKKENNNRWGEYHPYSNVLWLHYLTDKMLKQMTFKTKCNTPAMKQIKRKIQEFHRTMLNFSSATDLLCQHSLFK
# How it was run: (§1)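 Each kinase domain, at 2 μM, is mixed with 20 μM test compound and SYPRO Orange in Hepes (20 mM, pH 7.5) with 500 mM NaCl. Temperature is then raised at 3°C/min and fluorescence-monitored unfolding yields the melting temperature change, ΔTm in degrees Celsius.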
# [2] = molecular target: T2, ~100 representative kinases (Homo sapiens, UniProt Q9H2X6); conditions: protein HIPK2; average of three replicates
# T2 construct: Recombinant protein kinase domains with a concentration of 2 μM
# T2 sequence (Q9H2X6 whole entry, the tested form may be a part): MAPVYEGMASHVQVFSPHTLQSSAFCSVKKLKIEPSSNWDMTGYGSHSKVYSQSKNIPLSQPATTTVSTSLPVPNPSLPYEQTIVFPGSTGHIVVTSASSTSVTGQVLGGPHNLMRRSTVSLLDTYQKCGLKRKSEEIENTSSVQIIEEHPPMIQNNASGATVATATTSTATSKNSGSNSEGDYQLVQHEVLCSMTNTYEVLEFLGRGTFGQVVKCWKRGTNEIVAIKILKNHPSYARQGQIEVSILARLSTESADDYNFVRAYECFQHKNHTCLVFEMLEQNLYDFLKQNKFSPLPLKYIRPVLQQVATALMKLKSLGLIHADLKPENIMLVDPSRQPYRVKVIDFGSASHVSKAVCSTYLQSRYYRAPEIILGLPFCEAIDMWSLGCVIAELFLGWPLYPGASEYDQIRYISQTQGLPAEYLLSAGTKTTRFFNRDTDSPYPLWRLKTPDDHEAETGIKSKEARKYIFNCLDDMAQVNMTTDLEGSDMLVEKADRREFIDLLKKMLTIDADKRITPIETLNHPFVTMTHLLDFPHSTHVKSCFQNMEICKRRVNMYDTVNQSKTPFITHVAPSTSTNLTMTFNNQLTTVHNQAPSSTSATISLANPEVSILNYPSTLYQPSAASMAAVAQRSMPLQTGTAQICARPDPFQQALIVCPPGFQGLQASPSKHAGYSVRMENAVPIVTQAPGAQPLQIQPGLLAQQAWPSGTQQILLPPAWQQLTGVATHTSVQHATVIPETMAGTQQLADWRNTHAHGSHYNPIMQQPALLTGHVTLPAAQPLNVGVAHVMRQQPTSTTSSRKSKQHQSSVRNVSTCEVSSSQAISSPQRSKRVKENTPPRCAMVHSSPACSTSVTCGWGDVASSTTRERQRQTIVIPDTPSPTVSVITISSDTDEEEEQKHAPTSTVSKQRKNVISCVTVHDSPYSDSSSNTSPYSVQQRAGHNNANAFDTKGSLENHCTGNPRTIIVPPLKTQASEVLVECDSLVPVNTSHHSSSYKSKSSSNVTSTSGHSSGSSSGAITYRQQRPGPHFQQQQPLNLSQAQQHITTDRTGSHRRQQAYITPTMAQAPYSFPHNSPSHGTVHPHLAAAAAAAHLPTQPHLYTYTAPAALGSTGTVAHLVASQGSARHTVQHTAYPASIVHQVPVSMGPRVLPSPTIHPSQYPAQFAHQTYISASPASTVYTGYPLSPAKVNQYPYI
# How it was run: as §1
# [3] = molecular target: T3, ~100 representative kinases (Homo sapiens, UniProt Q9NSY1); conditions: Protein BMP2K; average of three replicates
# T3 construct: Recombinant protein kinase domains with a concentration of 2 μM
# T3 sequence (Q9NSY1 whole entry, the tested form may be a part): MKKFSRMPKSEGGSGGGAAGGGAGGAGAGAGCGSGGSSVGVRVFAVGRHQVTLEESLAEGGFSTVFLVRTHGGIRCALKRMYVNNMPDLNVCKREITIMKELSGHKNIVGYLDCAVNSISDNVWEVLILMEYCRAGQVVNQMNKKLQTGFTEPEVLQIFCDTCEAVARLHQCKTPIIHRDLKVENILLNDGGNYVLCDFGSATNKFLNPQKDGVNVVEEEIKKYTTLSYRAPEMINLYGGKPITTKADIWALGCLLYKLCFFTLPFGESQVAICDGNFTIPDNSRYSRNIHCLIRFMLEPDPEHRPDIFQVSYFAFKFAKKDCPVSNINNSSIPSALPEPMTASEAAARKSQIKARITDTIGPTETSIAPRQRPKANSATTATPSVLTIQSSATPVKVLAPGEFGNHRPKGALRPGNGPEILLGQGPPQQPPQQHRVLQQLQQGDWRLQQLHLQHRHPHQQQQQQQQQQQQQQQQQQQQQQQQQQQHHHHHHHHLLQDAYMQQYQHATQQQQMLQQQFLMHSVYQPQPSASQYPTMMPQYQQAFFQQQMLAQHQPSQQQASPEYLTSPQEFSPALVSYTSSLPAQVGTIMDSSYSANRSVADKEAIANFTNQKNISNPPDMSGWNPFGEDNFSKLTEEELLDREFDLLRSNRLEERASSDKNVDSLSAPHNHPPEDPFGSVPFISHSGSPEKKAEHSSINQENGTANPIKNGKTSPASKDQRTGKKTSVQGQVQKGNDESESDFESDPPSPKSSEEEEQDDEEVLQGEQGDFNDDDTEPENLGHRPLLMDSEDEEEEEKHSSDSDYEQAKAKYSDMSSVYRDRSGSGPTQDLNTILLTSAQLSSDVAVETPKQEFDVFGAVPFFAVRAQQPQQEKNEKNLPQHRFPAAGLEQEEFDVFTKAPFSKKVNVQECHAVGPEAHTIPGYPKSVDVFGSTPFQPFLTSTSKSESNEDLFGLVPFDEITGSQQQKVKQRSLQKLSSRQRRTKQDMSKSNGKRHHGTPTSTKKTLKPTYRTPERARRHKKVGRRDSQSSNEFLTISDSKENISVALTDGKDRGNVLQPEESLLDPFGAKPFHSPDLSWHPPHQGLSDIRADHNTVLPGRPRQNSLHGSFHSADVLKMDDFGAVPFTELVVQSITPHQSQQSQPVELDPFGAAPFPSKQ
# How it was run: as §1
# [4] = molecular target: T4, ~100 representative kinases (Homo sapiens, UniProt P19784); conditions: Protein CK2A2; average of three replicates
# T4 construct: Recombinant protein kinase domains with a concentration of 2 μM
# T4 sequence (P19784 whole entry, the tested form may be a part): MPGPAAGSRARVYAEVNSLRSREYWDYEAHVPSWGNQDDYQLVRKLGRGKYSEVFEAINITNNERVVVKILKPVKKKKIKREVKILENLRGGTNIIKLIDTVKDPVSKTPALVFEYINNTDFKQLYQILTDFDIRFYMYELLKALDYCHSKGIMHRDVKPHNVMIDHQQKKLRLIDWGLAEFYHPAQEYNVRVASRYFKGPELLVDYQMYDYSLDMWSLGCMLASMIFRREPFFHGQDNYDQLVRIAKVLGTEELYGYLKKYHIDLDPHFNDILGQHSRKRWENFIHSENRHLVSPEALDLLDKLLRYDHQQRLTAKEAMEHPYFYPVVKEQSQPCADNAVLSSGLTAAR
# How it was run: as §1
# [5] = molecular target: T5, ~100 representative kinases (Homo sapiens, UniProt O75582); conditions: Protein RPS6KA5; DSF; average of three replicates
# T5 construct: Recombinant protein kinase domains with a concentration of 2 μM
# How it was run: as §1
# [6] = molecular target: T6, ~100 representative kinases (Homo sapiens, UniProt P29317); conditions: Protein EPHA2; average of three replicates
# T6 construct: Recombinant protein kinase domains with a concentration of 2 μM
# How it was run: as §1
# [7] = molecular target: T7, ~100 representative kinases (Homo sapiens, UniProt P54764); conditions: Protein EPHA4; average of three replicates
# T7 construct: Recombinant protein kinase domains with a concentration of 2 μM
# T7 sequence (P54764 20-986): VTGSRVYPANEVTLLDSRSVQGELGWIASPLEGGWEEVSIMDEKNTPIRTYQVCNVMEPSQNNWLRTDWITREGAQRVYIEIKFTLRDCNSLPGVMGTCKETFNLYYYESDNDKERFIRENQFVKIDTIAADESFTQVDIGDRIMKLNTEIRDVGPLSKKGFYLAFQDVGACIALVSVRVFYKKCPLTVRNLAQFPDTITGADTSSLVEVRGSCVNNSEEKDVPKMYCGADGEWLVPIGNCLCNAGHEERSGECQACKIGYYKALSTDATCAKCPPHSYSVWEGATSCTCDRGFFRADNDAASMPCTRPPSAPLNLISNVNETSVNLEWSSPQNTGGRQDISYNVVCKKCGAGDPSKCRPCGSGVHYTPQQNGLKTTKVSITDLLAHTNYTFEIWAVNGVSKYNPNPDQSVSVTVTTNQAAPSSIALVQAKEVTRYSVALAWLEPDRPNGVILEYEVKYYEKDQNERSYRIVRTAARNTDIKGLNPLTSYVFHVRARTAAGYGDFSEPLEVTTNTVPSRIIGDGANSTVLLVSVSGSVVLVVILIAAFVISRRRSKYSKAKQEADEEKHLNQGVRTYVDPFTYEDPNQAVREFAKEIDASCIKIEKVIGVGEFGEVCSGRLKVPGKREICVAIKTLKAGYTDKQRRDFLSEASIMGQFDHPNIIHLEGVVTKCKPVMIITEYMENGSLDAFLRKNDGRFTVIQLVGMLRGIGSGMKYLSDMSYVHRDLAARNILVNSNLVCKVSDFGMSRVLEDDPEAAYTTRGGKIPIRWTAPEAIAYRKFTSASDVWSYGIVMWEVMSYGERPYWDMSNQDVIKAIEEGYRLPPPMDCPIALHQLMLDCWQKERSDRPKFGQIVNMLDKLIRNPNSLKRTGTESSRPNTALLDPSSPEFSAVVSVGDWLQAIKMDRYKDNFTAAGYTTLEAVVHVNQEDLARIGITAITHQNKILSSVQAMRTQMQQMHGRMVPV
# How it was run: as §1
# [8] = molecular target: T8, ~100 representative kinases (Homo sapiens, UniProt P68400); conditions: Protein CK2A1; average of three replicates
# T8 construct: Recombinant protein kinase domains with a concentration of 2 μM
# T8 sequence (P68400 whole entry, the tested form may be a part): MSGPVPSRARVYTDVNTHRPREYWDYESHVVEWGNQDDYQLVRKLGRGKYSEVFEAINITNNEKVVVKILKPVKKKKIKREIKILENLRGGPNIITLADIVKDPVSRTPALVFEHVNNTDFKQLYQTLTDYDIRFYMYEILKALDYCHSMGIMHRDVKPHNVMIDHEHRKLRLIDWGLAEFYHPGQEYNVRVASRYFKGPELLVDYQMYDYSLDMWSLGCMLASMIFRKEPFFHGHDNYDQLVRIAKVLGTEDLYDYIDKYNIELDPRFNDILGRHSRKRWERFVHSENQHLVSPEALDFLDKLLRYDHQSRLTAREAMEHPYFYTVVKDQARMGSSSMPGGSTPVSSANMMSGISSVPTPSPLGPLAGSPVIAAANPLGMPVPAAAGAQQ
# How it was run: as §1
# [9] = molecular target: T9, ~100 representative kinases (Homo sapiens, UniProt Q13557); conditions: Protein CAMK2D; average of three replicates
# T9 construct: Recombinant protein kinase domains with a concentration of 2 μM
# T9 sequence (Q13557 whole entry, the tested form may be a part): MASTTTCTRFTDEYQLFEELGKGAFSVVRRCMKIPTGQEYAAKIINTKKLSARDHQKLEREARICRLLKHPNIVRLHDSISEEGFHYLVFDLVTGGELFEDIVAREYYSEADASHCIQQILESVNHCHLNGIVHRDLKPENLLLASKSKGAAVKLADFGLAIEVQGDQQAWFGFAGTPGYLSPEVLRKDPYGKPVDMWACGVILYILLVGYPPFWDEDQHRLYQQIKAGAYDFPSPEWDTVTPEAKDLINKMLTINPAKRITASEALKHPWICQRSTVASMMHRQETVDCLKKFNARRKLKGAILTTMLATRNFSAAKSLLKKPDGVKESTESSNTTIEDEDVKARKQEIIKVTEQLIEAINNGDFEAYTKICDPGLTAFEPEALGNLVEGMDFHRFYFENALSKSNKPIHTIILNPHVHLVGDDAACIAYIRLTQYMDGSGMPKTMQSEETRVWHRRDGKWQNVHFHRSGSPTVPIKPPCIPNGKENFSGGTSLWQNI
# How it was run: as §1
# [10] = molecular target: T10, ~100 representative kinases (Homo sapiens, UniProt Q12866); conditions: protein MERTK; average of three replicates
# T10 construct: Recombinant protein kinase domains with a concentration of 2 μM
# T10 sequence (Q12866 21-999): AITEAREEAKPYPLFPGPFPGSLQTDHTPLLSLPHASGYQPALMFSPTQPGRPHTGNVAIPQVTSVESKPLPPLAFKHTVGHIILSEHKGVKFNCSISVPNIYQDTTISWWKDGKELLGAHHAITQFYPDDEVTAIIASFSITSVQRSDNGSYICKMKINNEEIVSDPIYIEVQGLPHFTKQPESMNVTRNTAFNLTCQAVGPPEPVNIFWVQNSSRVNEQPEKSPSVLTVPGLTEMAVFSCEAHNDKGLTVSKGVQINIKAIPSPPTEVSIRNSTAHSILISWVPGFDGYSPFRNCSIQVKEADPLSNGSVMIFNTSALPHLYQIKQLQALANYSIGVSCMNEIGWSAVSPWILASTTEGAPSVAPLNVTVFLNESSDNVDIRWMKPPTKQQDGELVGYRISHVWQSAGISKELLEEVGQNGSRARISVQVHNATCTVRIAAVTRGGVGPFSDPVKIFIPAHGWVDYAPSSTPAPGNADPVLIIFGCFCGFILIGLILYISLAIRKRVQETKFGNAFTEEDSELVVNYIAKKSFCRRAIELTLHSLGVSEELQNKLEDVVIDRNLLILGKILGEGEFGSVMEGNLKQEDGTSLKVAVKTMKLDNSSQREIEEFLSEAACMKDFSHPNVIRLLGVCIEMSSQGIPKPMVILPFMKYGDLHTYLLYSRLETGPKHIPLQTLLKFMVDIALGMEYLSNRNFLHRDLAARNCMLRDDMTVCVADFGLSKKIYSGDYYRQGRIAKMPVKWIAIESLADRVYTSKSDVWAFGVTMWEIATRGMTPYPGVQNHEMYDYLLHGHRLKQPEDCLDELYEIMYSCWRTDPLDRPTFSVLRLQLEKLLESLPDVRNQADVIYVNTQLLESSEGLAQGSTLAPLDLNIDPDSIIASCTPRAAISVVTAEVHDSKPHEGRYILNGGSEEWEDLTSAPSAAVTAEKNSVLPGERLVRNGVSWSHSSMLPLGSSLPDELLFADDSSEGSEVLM
# How it was run: as §1
# [11] = molecular target: T11, ~100 representative kinases (Homo sapiens, UniProt P49137); conditions: protein MAPKAPK2; average of three replicates
# T11 construct: Recombinant protein kinase domains with a concentration of 2 μM
# T11 sequence (P49137 whole entry, the tested form may be a part): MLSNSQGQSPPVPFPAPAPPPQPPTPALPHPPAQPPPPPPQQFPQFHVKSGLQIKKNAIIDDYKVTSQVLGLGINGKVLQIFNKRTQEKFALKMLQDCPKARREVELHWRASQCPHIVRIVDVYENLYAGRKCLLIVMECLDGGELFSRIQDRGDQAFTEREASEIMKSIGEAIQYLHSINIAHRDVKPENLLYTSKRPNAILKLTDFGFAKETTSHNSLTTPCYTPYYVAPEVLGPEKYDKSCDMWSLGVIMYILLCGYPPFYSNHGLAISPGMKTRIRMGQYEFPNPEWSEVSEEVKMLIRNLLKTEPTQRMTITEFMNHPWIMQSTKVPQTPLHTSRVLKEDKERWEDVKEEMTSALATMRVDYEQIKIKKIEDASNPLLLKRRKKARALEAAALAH
# How it was run: as §1
compound,measurement,setting,value
O=C(Nc1cccc(-c2c[nH]c3ncnc(N4CCOCC4)c23)c1)C1(C(=O)Nc2ccc(F)c(Br)c2F)CC1 [Compound 26],dTm,[1],-2.00 K
same,dTm,[2],2.07 K
same,dTm,[3],9.57 K
same,dTm,[4],4.72 K
same,dTm,[5],-0.55 K
same,dTm,[6],2.30 K
same,dTm,[7],2.01 K
same,dTm,[8],-1.70 K
same,dTm,[9],1.25 K
same,dTm,[10],1.09 K
same,dTm,[11],-1.06 K
O=C(Nc1cc(F)cc(Br)c1)C1(C(=O)Nc2cccc(-c3c[nH]c4ncnc(N5CCOCC5)c34)c2)CC1 [Compound 27],dTm,[1],-3.53 K
same,dTm,[2],1.50 K
same,dTm,[3],5.45 K
same,dTm,[4],2.42 K
same,dTm,[5],0.67 K
same,dTm,[6],0.41 K
same,dTm,[7],1.53 K
same,dTm,[8],-1.92 K
same,dTm,[9],0.42 K
same,dTm,[10],0.27 K
same,dTm,[11],0.07 K
CC(C)(C)c1cc(NC(=O)Nc2cccc(-c3c[nH]c4ncnc(N5CCOCC5)c34)c2)n(-c2ccc3ncccc3c2)n1 [Compound 28],dTm,[1],-2.39 K
same,dTm,[2],9.47 K
same,dTm,[3],6.24 K
same,dTm,[4],-0.38 K
same,dTm,[5],16.84 K
same,dTm,[6],14.41 K
same,dTm,[7],8.59 K
same,dTm,[8],0.00 K
same,dTm,[9],0.51 K
same,dTm,[10],5.15 K
same,dTm,[11],0.51 K
Cc1ccc(-n2nc(C(C)(C)C)cc2NC(=O)Nc2cccc(-c3c[nH]c4ncnc(N5CCOCC5)c34)c2)cc1 [Compound 29],dTm,[1],-2.91 K
same,dTm,[2],9.24 K
same,dTm,[3],7.54 K
same,dTm,[4],-2.10 K
same,dTm,[5],11.96 K
same,dTm,[6],10.91 K
same,dTm,[7],6.97 K
same,dTm,[8],0.69 K
same,dTm,[9],-0.40 K
same,dTm,[10],2.79 K
same,dTm,[11],-0.55 K
Cc1ccc(-n2nc(C(C)(C)C)cc2NC(=O)Nc2cccc(-c3c[nH]c4nc(Cl)nc(N5CCOCC5)c34)c2)cc1 [Compound 30],dTm,[1],-1.55 K
same,dTm,[2],1.85 K
same,dTm,[3],1.64 K
same,dTm,[4],-4.20 K
same,dTm,[5],7.61 K
same,dTm,[6],3.08 K
same,dTm,[7],1.07 K
same,dTm,[8],0.59 K
same,dTm,[9],-0.81 K
same,dTm,[10],-1.91 K
same,dTm,[11],-0.50 K
CC(=O)N1CCN(c2nc(Cl)nc3[nH]cc(-c4cccc(NC(=O)Nc5cc(C(C)(C)C)nn5-c5ccc(C)cc5)c4)c23)CC1 [Compound 31],dTm,[1],-3.39 K
same,dTm,[2],2.23 K
same,dTm,[3],1.28 K
same,dTm,[4],-3.51 K
same,dTm,[5],8.01 K
same,dTm,[6],4.11 K
same,dTm,[7],2.58 K
same,dTm,[8],0.26 K
same,dTm,[9],-0.29 K
same,dTm,[10],0.10 K
same,dTm,[11],-0.40 K
CCSc1nc(NC)c2c(-c3cccc(NC(=O)Nc4cc(C(C)(C)C)nn4-c4ccc(C)cc4)c3)c[nH]c2n1 [Compound 32],dTm,[1],0.63 K
same,dTm,[2],0.31 K
same,dTm,[3],0.75 K
same,dTm,[4],-0.62 K
same,dTm,[5],0.23 K
same,dTm,[6],0.36 K
same,dTm,[7],-0.34 K
same,dTm,[8],0.23 K
same,dTm,[9],0.32 K
same,dTm,[10],0.0365 K
same,dTm,[11],0.11 K
COc1cc(C(=O)N2CCOCC2)c(F)cc1Nc1nc(N(C)C)c2c(Cl)c[nH]c2n1 [Compound 36],dTm,[1],-1.75 K
same,dTm,[2],0.93 K
same,dTm,[3],1.71 K
same,dTm,[4],1.00 K
same,dTm,[5],2.79 K
same,dTm,[6],-0.10 K
same,dTm,[7],-0.69 K
same,dTm,[8],2.03 K
same,dTm,[9],3.01 K
same,dTm,[10],-0.62 K
same,dTm,[11],2.68 K
COc1cc(S(C)(=O)=O)ccc1Nc1nc(N(C)C)c2c(Cl)c[nH]c2n1 [Compound 37],dTm,[1],0.32 K
same,dTm,[2],0.11 K
same,dTm,[3],0.08 K
same,dTm,[4],1.16 K
same,dTm,[5],1.80 K
same,dTm,[6],-0.56 K
same,dTm,[7],-0.37 K
same,dTm,[8],0.51 K
same,dTm,[9],0.41 K
same,dTm,[10],-0.61 K
same,dTm,[11],0.98 K
CCNc1nc(Nc2cc(F)c(C(=O)N3CCOCC3)cc2OC)ncc1C(F)(F)F [GNE-7915],dTm,[1],-0.09 K
same,dTm,[2],0.82 K
same,dTm,[3],8.11 K
same,dTm,[4],2.65 K
same,dTm,[5],3.91 K
same,dTm,[6],0.40 K
same,dTm,[7],0.0738 K
same,dTm,[8],1.87 K
same,dTm,[9],-0.06 K
same,dTm,[10],2.33 K
same,dTm,[11],-0.23 K
"Cc1ccc(C(=O)Nc2ccc(CN3CCN(C)CC3)c(C(F)(F)F)c2)cc1C#Cc1cnc2[nH]ncc2c1 [GZD-824, reference compound]",dTm,[1],0.04 K
same,dTm,[2],1.22 K
same,dTm,[3],4.51 K
same,dTm,[4],1.79 K
same,dTm,[5],8.48 K
same,dTm,[6],17.23 K
same,dTm,[7],15.22 K
same,dTm,[8],-1.14 K
same,dTm,[9],-0.21 K
same,dTm,[10],5.77 K
same,dTm,[11],-0.24 K
C[C@@H]1CN(c2cc(-c3n[nH]c4ccc(OC5(C)CC5)cc34)ncn2)C[C@H](C)O1 [MLi2],dTm,[1],0.08 K
same,dTm,[2],0.22 K
same,dTm,[3],2.01 K
same,dTm,[4],-0.31 K
same,dTm,[5],-1.02 K
same,dTm,[6],0.27 K
same,dTm,[7],-0.15 K
same,dTm,[8],0.17 K
same,dTm,[9],1.10 K
same,dTm,[10],0.0155 K
same,dTm,[11],-0.23 K
Cn1cc(-c2c[nH]c3ncnc(N4CCOCC4)c23)cc1C#N [PFE-360],dTm,[1],2.32 K
same,dTm,[2],0.25 K
same,dTm,[3],14.15 K
same,dTm,[4],0.26 K
same,dTm,[5],0.69 K
same,dTm,[6],0.68 K
same,dTm,[7],0.0126 K
same,dTm,[8],0.25 K
same,dTm,[9],0.51 K
same,dTm,[10],0.31 K
same,dTm,[11],0.0427 K
